Reference: patent publication EP0983768A1, “MEDICINAL COMPOSITION FOR PREVENTION OR TREATMENT OF HEPATOPATHY” (Nippon Shinyaku Co., Ltd., priority 1997, dated 1998)
Marks after values point to notes of the source that are not given here.

How the values were obtained:
[1] = tested on: concanavalin A-induced hepatic damage in mice; test: Inhibitory effect on concanavalin A-induced hepatic damage (plasma transaminase activities GOT, GPT); format: in vivo; conditions: male BALB/c mice; for Inhibition rate (%) i.p. GOT / Inhibition rate (%) p.o. GOT: plasma GOT 24 hours after con A; for Inhibition rate (%) i.p. GPT / Inhibition rate (%) p.o. GPT: plasma GPT 24 hours after con A
Experimental: The hepatic damage inhibitory effect of the adenosine A2 receptor agonist of the invention can be verified by a test using mice as described below. Among the various animal models proposed for the evaluation of hepatic damage inhibitory activity, the disease model used in this test resembles human hepatitis in the mechanism of onset. Using 6-weeks old male BALB/c mice in groups of 17-20, the test drug was administered intraperitoneally or orally. At 30 minutes after intraperitoneal administration of the test drug or 1 hour after oral administration, 0.6 mg of concanavalin A (con A) was administered intravenously to each animal to induce hepatic damage. At 24 hours after administration of con A, plasma transaminase activities [GOT (glutamic-oxaloacetic transaminase), GPT (glutamic-pyruvic transaminase)] were determined. The plasma transaminase activity inhibition rate in each group given a test drug relative to the control group was calculated by means of the following equation. Inhibition rate (%) = [(C-D)/C] × 100 [formula] where C represents the mean value of plasma transaminase activity in the control group and D represents the mean value of plasma transaminase activity in the group given a test drug.

ICR mice = conditions: 1000 mg/kg orally, 7-8 weeks old; cited from earlier work
[2] = 0.3 mg/kg i.p. 30 minutes before con A
[3] = 3 mg/kg i.p. 30 minutes before con A
[4] = 3 mg/kg p.o. 1 hour before con A
[5] = 1 mg/kg p.o. 1 hour before con A
[6] = 1 mg/kg i.p. 30 minutes before con A

## CCNC(=O)[C@H]1O[C@@H](n2cnc3c(N)nc(NCCc4ccc(CCC(=O)O)cc4)nc32)[C@H](O)[C@@H]1O [Compound 1, 1-[6-amino-2-[(2-(4-(2-carboxyethyl)phenyl)-ethyl)amino]-9H-purin-9-yl]-1-deoxy-N-ethyl-β-D-ribofuranuronamide]
[1]; [2]
  Inhibition rate (%) i.p. GOT: 85** %
  Inhibition rate (%) i.p. GPT: 88** %
[1]; [3]
  Inhibition rate (%) i.p. GOT: 93** %
  Inhibition rate (%) i.p. GPT: 98** %
[1]; [4]
  Inhibition rate (%) p.o. GOT: 64* %
  Inhibition rate (%) p.o. GPT: 58* %

## CCCCCCC#Cc1nc(N)c2ncn([C@@H]3O[C@H](CO)[C@@H](O)[C@H]3O)c2n1 [Compound 5, 2-(1-octyn-1-yl)adenosine]
[1]; [2]
  Inhibition rate (%) i.p. GOT: 90** %
  Inhibition rate (%) i.p. GPT: 96** %
[1]; [3]
  Inhibition rate (%) i.p. GOT: 91** %
  Inhibition rate (%) i.p. GPT: 96** %
[1]; [4]
  Inhibition rate (%) p.o. GOT: 93** %
  Inhibition rate (%) p.o. GPT: 97** %
ICR mice
  death: no death was encountered

## COc1cc(OC)cc(C(CNc2ncnc3c2ncn3[C@@H]2O[C@H](CO)[C@@H](O)[C@H]2O)c2ccccc2C)c1 (stereo partly shown) [Compound 3, N^6-[2-(3,5-dimethoxyphenyl)-2-(2-methylphenyl)ethyl]adenosine]
[1]; [2]
  Inhibition rate (%) i.p. GOT: 61** %
  Inhibition rate (%) i.p. GPT: 60** %
[1]; [3]
  Inhibition rate (%) i.p. GOT: 83** %
  Inhibition rate (%) i.p. GPT: 87** %
[1]; [4]
  Inhibition rate (%) p.o. GOT: 86** %
  Inhibition rate (%) p.o. GPT: 88** %

## Nc1ncnc2c1ncn2[C@@H]1O[C@H](C(=O)NC2CC2)[C@@H](O)[C@H]1O [Compound 4, 1-(6-amino-9H-purin-9-yl)-1-deoxy-N-cyclopropyl-β-D-ribofuranuronamide]
[1]; [5]
  Inhibition rate (%) p.o. GOT: 49** %
  Inhibition rate (%) p.o. GPT: 56** %

## Nc1nc(Nc2ccccc2)nc2c1ncn2[C@@H]1O[C@H](CO)[C@@H](O)[C@H]1O [Compound 2, 2-(phenylamino)adenosine]
[1]; [2]
  Inhibition rate (%) i.p. GOT: 61** %
  Inhibition rate (%) i.p. GPT: 65** %
[1]; [6]
  Inhibition rate (%) i.p. GOT: 81** %
  Inhibition rate (%) i.p. GPT: 91** %
